Results taken from patent US20080176936A1, “Classes of Compounds that Interact with Integrins” (priority 2005, published 2008).

Columns and labels:
[1] = target: T1, αllbβ3 integrin (Homo sapiens, UniProt P05106+P08514); test: ELISA: inhibition of binding of αllbβ3 integrin membrane preparation to coated extracellular matrix protein; conditions: human platelet membrane preparation
T1 construct: Human platelet membrane preparations were used as a source of αllbβ3 integrin; from tissue; host or cells: human platelets (membrane preparation)
Method: (§1) An ELISA assay based on the published method of Bethert et al., 2000, J Biol Chem 275, 33308-23, was employed.
(§2) Briefly, appropriate microtitre plates were coated with either Fibrinogen or Vitronectin (10 μg/well). These extracellular matrix proteins contain the RGD amino acid sequence that is recognized by αllbβ3 integrin. Human platelet membrane preparations were used as a source of αllbβ3 integrin and the cell line WM-115 was used as a source of αVβ3 integrin. Inhibition of the binding of αllbβ3 integrin containing membrane preparations to the extracellular matrix protein was determined by pre-incubating the platelet membrane preparation with test or control compounds. The binding of the αllbβ3 integrin containing membrane was the quantitated by using a rabbit anti-integrinβ3 antibody, a horse radish peroxidase coupled second antibody and a standard colorimetric detection system.

[2] = target: T2, αVβ3 integrin (Homo sapiens, UniProt P05106+P06756); test: ELISA: inhibition of binding of αVβ3 integrin (source WM-115 cell line) to coated extracellular matrix protein; conditions: WM-115 cell line as integrin source
T2 construct: the cell line WM-115 was used as a source of αVβ3 integrin; endogenous in cells; host or cells: WM-115 cell line
Method: as §1, §2

T2 sequence (P06756 31-889 limits assumed): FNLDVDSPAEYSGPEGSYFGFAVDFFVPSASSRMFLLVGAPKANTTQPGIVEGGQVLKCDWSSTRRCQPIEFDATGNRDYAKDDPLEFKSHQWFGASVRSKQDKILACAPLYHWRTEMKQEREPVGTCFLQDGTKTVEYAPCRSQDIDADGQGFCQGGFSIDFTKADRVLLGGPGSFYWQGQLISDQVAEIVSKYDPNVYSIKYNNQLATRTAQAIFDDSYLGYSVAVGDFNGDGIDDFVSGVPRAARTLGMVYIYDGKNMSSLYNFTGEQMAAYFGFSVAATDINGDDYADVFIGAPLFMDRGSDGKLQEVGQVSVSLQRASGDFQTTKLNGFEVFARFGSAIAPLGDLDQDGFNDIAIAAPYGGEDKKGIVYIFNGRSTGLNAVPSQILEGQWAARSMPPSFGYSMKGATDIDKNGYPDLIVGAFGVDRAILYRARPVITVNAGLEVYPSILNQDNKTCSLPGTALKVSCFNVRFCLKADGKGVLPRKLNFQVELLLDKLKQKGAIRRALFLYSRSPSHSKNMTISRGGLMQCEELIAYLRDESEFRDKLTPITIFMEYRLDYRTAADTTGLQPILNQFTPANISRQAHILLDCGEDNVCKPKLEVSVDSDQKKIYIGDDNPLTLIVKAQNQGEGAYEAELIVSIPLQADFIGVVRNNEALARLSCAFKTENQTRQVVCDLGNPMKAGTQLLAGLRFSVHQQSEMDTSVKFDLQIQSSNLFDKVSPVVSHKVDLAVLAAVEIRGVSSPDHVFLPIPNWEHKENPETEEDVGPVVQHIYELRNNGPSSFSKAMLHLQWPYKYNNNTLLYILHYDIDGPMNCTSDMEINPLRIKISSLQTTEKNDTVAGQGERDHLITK
T2 sequence (P06756 891-1048 partner limits assumed): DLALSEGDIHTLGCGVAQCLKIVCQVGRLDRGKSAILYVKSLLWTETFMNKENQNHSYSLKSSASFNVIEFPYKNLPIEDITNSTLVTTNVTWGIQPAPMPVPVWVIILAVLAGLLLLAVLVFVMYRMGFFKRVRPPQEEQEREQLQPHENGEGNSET
T2 sequence (P05106 27-788): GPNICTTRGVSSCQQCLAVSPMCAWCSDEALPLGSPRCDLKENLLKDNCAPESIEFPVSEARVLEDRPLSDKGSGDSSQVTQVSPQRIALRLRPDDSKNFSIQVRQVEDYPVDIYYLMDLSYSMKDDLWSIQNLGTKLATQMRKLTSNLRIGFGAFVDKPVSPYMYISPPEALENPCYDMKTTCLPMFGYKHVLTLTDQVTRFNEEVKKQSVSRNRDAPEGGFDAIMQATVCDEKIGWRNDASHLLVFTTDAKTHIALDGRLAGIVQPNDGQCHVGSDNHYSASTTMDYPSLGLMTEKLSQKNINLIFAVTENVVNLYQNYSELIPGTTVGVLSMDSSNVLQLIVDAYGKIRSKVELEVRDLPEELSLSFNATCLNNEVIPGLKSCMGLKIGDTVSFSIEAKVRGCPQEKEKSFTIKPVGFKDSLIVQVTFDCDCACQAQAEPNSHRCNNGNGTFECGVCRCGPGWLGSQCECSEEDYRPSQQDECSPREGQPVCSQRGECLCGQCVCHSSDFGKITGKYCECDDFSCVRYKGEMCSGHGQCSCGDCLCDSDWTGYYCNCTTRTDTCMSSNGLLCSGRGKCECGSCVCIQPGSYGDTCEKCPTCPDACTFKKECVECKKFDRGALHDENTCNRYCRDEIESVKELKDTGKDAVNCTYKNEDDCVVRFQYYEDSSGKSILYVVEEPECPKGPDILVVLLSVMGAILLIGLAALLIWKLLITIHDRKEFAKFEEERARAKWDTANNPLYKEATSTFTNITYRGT
T1 sequence (P08514 32-887 limits assumed): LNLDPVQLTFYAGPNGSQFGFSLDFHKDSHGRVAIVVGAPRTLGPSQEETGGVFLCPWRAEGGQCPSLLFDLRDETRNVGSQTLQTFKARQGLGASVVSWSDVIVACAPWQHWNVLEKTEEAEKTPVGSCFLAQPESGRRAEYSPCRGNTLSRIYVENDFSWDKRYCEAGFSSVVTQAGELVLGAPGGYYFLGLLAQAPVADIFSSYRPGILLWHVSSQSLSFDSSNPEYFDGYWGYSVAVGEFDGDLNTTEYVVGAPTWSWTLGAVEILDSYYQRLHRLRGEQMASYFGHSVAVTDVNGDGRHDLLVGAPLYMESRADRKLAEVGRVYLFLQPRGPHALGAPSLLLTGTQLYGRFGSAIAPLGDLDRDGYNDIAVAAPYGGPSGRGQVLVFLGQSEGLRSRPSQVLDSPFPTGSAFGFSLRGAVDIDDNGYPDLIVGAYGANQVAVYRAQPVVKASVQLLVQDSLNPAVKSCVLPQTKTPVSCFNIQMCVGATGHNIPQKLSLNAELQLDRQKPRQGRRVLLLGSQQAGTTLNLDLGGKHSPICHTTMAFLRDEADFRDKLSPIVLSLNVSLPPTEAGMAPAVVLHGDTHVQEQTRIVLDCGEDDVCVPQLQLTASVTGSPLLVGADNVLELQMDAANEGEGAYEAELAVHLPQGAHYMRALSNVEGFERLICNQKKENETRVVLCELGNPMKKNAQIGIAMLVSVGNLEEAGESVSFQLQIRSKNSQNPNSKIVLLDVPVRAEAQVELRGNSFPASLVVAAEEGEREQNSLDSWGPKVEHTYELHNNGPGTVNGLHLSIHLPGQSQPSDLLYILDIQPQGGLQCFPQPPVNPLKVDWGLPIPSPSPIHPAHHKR
T1 sequence (P08514 891-1039 partner limits assumed): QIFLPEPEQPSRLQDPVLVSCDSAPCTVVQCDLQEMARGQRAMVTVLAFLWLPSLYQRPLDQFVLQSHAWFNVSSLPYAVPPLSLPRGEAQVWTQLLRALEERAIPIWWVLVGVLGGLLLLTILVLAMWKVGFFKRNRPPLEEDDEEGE
T1 sequence (P05106 27-788): as the sequence (P05106 27-788) above

SMILES	INHIBITION @ 250 uM RECEPTOR allBb3 SUBSTRATE FIBRINOGEN [1]	INHIBITION 250 uM RECEPTOR allBb3 SUBSTRATE VITRONECTIN [1]	INHIBITION 250 uM RECEPTOR aVb3 SUBSTRATE FIBRINOGEN [2]
Nc1cccc(C(=O)NC2C(O)OC(COCC(=O)O)C(O)C2OCc2ccc(Br)cc2)c1 (single isomer, unassigned) [Compound 1]	+ (36% to 60% inhibition at 250 micromolar)	+ (36% to 60% inhibition at 250 micromolar)	− (0% to 35% inhibition at 250 micromolar)
COC1OC(COCc2cccc(N)c2)C(O)C(OCc2ccc(Br)cc2)C1NC(=O)c1ccc(C(=O)O)cc1 (single isomer, unassigned) [Compound 3]	+ (36% to 60% inhibition at 250 micromolar)	+++ (81% to 100% inhibition at 250 micromolar)	+ (36% to 60% inhibition at 250 micromolar)
COC1OC(COCc2cccc(N)c2)C(O)C(OCc2ccc(Br)cc2)C1NC(=O)c1ccc(C(=O)O)cc1 (single isomer, unassigned) [Compound 4]	− (0% to 35% inhibition at 250 micromolar)	− (0% to 35% inhibition at 250 micromolar)	+ (36% to 60% inhibition at 250 micromolar)
COC1OC(COCc2ccccc2)C(O)C(OCC(=O)O)C1NC(=O)c1cccc(N)c1 (single isomer, unassigned) [Compound 5]	++ (61% to 80% inhibition at 250 micromolar)	+++ (81% to 100% inhibition at 250 micromolar)	++ (61% to 80% inhibition at 250 micromolar)
COC1OC(COCc2ccccc2)C(O)C(OCC(=O)O)C1NC(=O)c1cccc(N)c1 (single isomer, unassigned) [Compound 6]	− (0% to 35% inhibition at 250 micromolar)	+++ (81% to 100% inhibition at 250 micromolar)	+++ (81% to 100% inhibition at 250 micromolar)
COC1OC(COCc2ccc(Br)cc2)C(O)C(OCC(=O)O)C1NC(=O)c1cccc(N)c1 (single isomer, unassigned) [Compound 7]	+ (36% to 60% inhibition at 250 micromolar)	+++ (81% to 100% inhibition at 250 micromolar)	+ (36% to 60% inhibition at 250 micromolar)
COC1OC(COCc2ccc(Br)cc2)C(O)C(OCC(=O)O)C1NC(=O)c1cccc(N)c1 (single isomer, unassigned) [Compound 8]	+ (36% to 60% inhibition at 250 micromolar)	+++ (81% to 100% inhibition at 250 micromolar)	+++ (81% to 100% inhibition at 250 micromolar)
COC1OC(COCc2cccc(N)c2)C(O)C(OCC(=O)O)C1NC(=O)c1ccc(Cl)cc1 (single isomer, unassigned) [Compound 9]	+ (36% to 60% inhibition at 250 micromolar)	+++ (81% to 100% inhibition at 250 micromolar)	+++ (81% to 100% inhibition at 250 micromolar)
COC1OC(COCc2cccc(N)c2)C(O)C(OCC(=O)O)C1NC(=O)c1ccc(Cl)cc1 (single isomer, unassigned) [Compound 10]	++ (61% to 80% inhibition at 250 micromolar)	+++ (81% to 100% inhibition at 250 micromolar)	+++ (81% to 100% inhibition at 250 micromolar)
COC1OC(COCc2ccccc2)C(O)C(OCc2ccc(C(=O)O)cc2)C1NC(=O)CCNC(=N)N (single isomer, unassigned) [Compound 11]	+ (36% to 60% inhibition at 250 micromolar)	+++ (81% to 100% inhibition at 250 micromolar)	+ (36% to 60% inhibition at 250 micromolar)
COC1OC(COCc2ccccc2)C(O)C(OCc2ccc(C(=O)O)cc2)C1NC(=O)CCNC(=N)N (single isomer, unassigned) [Compound 12]	++ (61% to 80% inhibition at 250 micromolar)	++ (61% to 80% inhibition at 250 micromolar)	− (0% to 35% inhibition at 250 micromolar)
COC(=O)c1ccc(COC2C(O)C(COCc3ccccc3)OC(OC)C2NC(=O)CCNC(=N)N)cc1 (single isomer, unassigned) [Compound 13]	+ (36% to 60% inhibition at 250 micromolar)	+++ (81% to 100% inhibition at 250 micromolar)	− (0% to 35% inhibition at 250 micromolar)
COC(=O)c1ccc(COC2C(O)C(COCc3ccccc3)OC(OC)C2NC(=O)CCNC(=N)N)cc1 (single isomer, unassigned) [Compound 14]	+ (36% to 60% inhibition at 250 micromolar)	+++ (81% to 100% inhibition at 250 micromolar)	++ (61% to 80% inhibition at 250 micromolar)
COC1OC(COCc2ccc(Br)cc2)C(O)C(OCc2ccc(C(=O)O)cc2)C1NC(=O)CCNC(=N)N (single isomer, unassigned) [Compound 15]	+ (36% to 60% inhibition at 250 micromolar)	+++ (81% to 100% inhibition at 250 micromolar)	++ (61% to 80% inhibition at 250 micromolar)
COC1OC(COCc2ccc(Br)cc2)C(O)C(OCc2ccc(C(=O)O)cc2)C1NC(=O)CCNC(=N)N (single isomer, unassigned) [Compound 16]	+ (36% to 60% inhibition at 250 micromolar)	+++ (81% to 100% inhibition at 250 micromolar)	++ (61% to 80% inhibition at 250 micromolar)
COC(=O)c1ccc(COC2C(O)C(COCc3ccc(Br)cc3)OC(OC)C2NC(=O)CCNC(=N)N)cc1 (single isomer, unassigned) [Compound 17]	+ (36% to 60% inhibition at 250 micromolar)	+++ (81% to 100% inhibition at 250 micromolar)	+++ (81% to 100% inhibition at 250 micromolar)
COC1OC(COCc2cccc(N)c2)C(O)C(OCc2ccc(C(=O)O)cc2)C1NC(=O)c1ccccc1 (single isomer, unassigned) [Compound 18]	++ (61% to 80% inhibition at 250 micromolar)	+++ (81% to 100% inhibition at 250 micromolar)	+++ (81% to 100% inhibition at 250 micromolar)
COC1OC(COCc2cccc(N)c2)C(O)C(OCc2ccc(C(=O)O)cc2)C1NC(=O)c1ccccc1 (single isomer, unassigned) [Compound 19]	++ (61% to 80% inhibition at 250 micromolar)	+++ (81% to 100% inhibition at 250 micromolar)	+++ (81% to 100% inhibition at 250 micromolar)
COC1OC(COCc2ccccc2)C(O)C(OCc2cccc(N)c2)C1NC(=O)CCC(=O)O (single isomer, unassigned) [Compound 20]	+++ (81% to 100% inhibition at 250 micromolar)	+++ (81% to 100% inhibition at 250 micromolar)	+++ (81% to 100% inhibition at 250 micromolar)
COC1OC(COCc2ccccc2)C(O)C(OCc2cccc(N)c2)C1NC(=O)CCC(=O)O (single isomer, unassigned) [Compound 21]	+++ (81% to 100% inhibition at 250 micromolar)	–	+++ (81% to 100% inhibition at 250 micromolar)
Nc1cccc(COC2C(O)C(COCc3ccccc3)OC(O)C2NC(=O)CCC(=O)O)c1 (single isomer, unassigned) [Compound 22]	+ (36% to 60% inhibition at 250 micromolar)	+ (36% to 60% inhibition at 250 micromolar)	+ (36% to 60% inhibition at 250 micromolar)
